Results on 15 molecules are retold here after ChEMBL document CHEMBL3763120, “Phenyl Benzenesulfonylhydrazides Exhibit Selective Indoleamine 2,3-Dioxygenase Inhibition with Potent in Vivo Pharmacodynamic Activity and Antitumor Efficacy” (J Med Chem, 2016).

Calls of active or inactive are those of the source. No cut-off for these calls is given here.

Data set [1] in a line: AUC (0 to infinity) in Sprague-Dawley rat plasma at 2 mg/kg, iv by LC-MS/MS analysis. The data set is classed as ADME, organism-based. On the set-up: dose 2 mg/kg, route intravenous, time infinity.
Data set [2] is described as follows: (§1) Volume of distribution at steady state in Sprague-Dawley rat plasma at 2 mg/kg, iv by LC-MS/MS analysis. The conditions noted are these: Sprague-Dawley, plasma, read-out: Vdss. The data set is classed as ADME, organism-based.
Data set [3] is described as follows: Clearance in Sprague-Dawley rat plasma at 2 mg/kg, iv by LC-MS/MS analysis. The class given is ADME, organism-based.
Data set [4] in a line: (§2) Half life in Sprague-Dawley rat plasma at 2 mg/kg, iv by LC-MS/MS analysis. The class given is ADME, organism-based. The conditions noted are these: Sprague-Dawley, plasma.
Data set [5] is described as follows: AUC (0 to infinity) in Sprague-Dawley rat plasma at 10 mg/kg, po by LC-MS/MS analysis. The data set is classed as ADME, organism-based. On the set-up: dose 10 mg/kg, route oral, time infinity.
The next data set relates to B16-F10. The data set is described as follows: Antitumor activity against mouse B16F10 cells xenografted in mouse at 400 mg/kg bid dosed daily for 2 weeks. The class given is functional, organism-based.
Data set [6] in a line: Oral bioavailability in Sprague-Dawley rat plasma at 10 mg/kg by LC-MS/MS analysis. The class given is ADME, organism-based.
Data set [7] can be described thus: Tmax in Sprague-Dawley rat plasma at 10 mg/kg, po by LC-MS/MS analysis. The class given is ADME, organism-based.
Data set [8] is described as follows: Cmax in Sprague-Dawley rat plasma at 10 mg/kg, po by LC-MS/MS analysis. Details: dose 10 mg/kg, route oral. The data set is classed as ADME, organism-based.
Data set [9] can be described thus: Half life in Sprague-Dawley rat plasma at 10 mg/kg, po by LC-MS/MS analysis. The class given is ADME, organism-based.
The nature of data set [10]: Drug degradation in Sprague-Dawley rat plasma within 5 mins. The conditions noted are these: read-out: Drug degradation. The class given is ADME, cell-free.
Data set [11] has as its target T1, Indoleamine 2,3-dioxygenase 1 (Homo sapiens, UniProt P14902). The data set is described as follows: Inhibition of human Indoleamine 2,3-dioxygenase using L-tryptophan as substrate by emission fluorescence analysis.
Data set [12] deals with T1, Indoleamine 2,3-dioxygenase 1. Put plainly: Inhibition of Indoleamine 2,3-dioxygenase in human HeLa cells in presence of L-tryptophan as substrate after 24 hrs in presence of L-tryptophan. The data set is classed as cell-based.
Data set [13] concerns Rattus norvegicus. The description is as §1. The note with it: in vivo. The data set is classed as ADME, organism-based.
Data set [14] has as its system Rattus norvegicus. The data set is described as §2. The data set is classed as ADME, organism-based. The conditions noted are these: in vivo.

T1 sequence (P14902 whole entry): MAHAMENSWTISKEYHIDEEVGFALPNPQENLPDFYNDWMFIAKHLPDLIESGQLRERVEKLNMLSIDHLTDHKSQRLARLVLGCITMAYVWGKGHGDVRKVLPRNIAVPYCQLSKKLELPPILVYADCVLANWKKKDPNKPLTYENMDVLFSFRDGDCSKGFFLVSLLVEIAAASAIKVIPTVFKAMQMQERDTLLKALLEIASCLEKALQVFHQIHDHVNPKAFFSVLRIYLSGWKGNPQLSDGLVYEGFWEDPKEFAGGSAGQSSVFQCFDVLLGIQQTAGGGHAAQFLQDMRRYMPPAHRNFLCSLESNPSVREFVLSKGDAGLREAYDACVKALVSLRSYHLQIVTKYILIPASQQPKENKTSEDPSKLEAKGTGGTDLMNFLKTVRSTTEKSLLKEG

One may read the AUC(0-inf) as total exposure, with the tail of the curve extrapolated. The low end stands for low exposure, the high end for high exposure. Usually clearance stands for a measure of how efficiently the substance is removed, as volume per time. Read a high clearance as a high capacity for elimination. The half-life is how long it takes for the measured level to halve. The bioavailability is the share of a dose that reaches the circulation, judged against a reference dose that is usually intravenous. The low end stands for little systemic uptake, the high end for much systemic uptake. For orientation: Tmax means the time at which the peak concentration occurs. For orientation: Cmax means the peak of the concentration-time curve. In the case of `CC(=O)Nc1ccc(S(=O)(=O)NNc2ccc(Br)cc2)cc1`, the AUC(0-inf) in data set [1] was found to be 1740 ng·h/mL; in data set [5], 3220 ng·h/mL. The Vd in data set [2] stood at 1.5 L/kg. The same molecule showed a clearance in [3] of 19.6 mL/min/kg. For the same molecule, the half-life in data set [4] is 3.5 h; in data set [9], 2.7 h. Also, the result in the data set on B16-F10 was inactive. For the same molecule, the bioavailability in data set [6] worked out at 37%. Besides, the Tmax in data set [7] stood at 0.7 h. Also, in data set [8], the Cmax turned out to be 1190 ng/mL.

Turning to `O=C(O)c1cccc(S(=O)(=O)NNc2ccc(Br)cc2)c1`, in data set [10], the metabolised at 5 min is 80%.

In general, IC50 refers to the concentration needed to halve the response being measured. Read a high IC50 as weaker potency in that assay. In turn, `O=C1Nc2ccc(S(=O)(=O)NNc3ccc(Br)cc3)cc2C1=O` yielded an IC50 in [11] above 10000 nM.

For orientation: EC50 means the concentration giving half of the maximal effect. In turn, `O=S(=O)(NNc1ccc(Br)cc1)c1ccc2[nH]c(O)nc2c1` came in with an IC50 in data set [11] of 57.3 nM. For the same molecule, the values for the AUC(0-inf) in [1] and in data set [5] were 594 ng·h/mL and 382 ng·h/mL, respectively. For the same molecule, in data set [2], the Vd stood at 6 L/kg. In data set [3], the clearance amounted to 57.1 mL/min/kg. In addition, in data set [12], the EC50 worked out at 63.1 nM. Moreover, the half-life was 0.8 h in [4] and 3 h in data set [9]. In data set [6], the bioavailability is 13%. Moreover, the Tmax in [7] was 1.3 h. Besides, the Cmax in [8] is 124 ng/mL.

Turning to `Cn1c(=O)n(C)c2cc(S(=O)(=O)NNc3ccc(Br)cc3)ccc21`, the midpoint of inhibition in data set [11], the IC50, lay at 47 nM. Further, the EC50 in data set [12] came to 135 nM.

On to `O=C1CCCc2cc(S(=O)(=O)NNc3ccc(Br)cc3)ccc2N1`, for which, in data set [11], the IC50 stood at 112 nM. Besides, the concentration for a half-maximal effect (EC50) in data set [12] is 195 nM.

The molecule `O=C1Nc2ccc(S(=O)(=O)NNc3ccc(Br)cc3)cc2C1(F)F` yielded an IC50 in data set [11] of 52.3 nM. For the same molecule, the EC50 in [12] stood at 30.6 nM.

In data set [11], `Nc1nc2cc(S(=O)(=O)NNc3ccc(Br)cc3)ccc2[nH]1` had an IC50 of 122 nM. In addition, in data set [12], the EC50 is 68.4 nM.

On to `CN1C(=O)Cc2cc(S(=O)(=O)NNc3ccc(Br)cc3)ccc21`, for which the IC50 in data set [11] was determined as 75.8 nM. In data set [12], the EC50 turned out to be 365 nM.

Turning to `O=C(CCN1CCOCC1)Nc1ccc(S(=O)(=O)NNc2ccc(Br)cc2)cc1`, the IC50 in data set [11] is 77 nM. Besides, in [12], the 50% effective concentration (EC50) is 217 nM.

As usually defined, the Vdss is the apparent volume that relates the amount in the body to the concentration in plasma or blood. Higher therefore signals wide distribution into tissue. In [11], `O=C1CCc2cc(S(=O)(=O)NNc3ccc(Br)cc3)ccc2N1` returned an IC50 of 72.7 nM. Further, the AUC(0-inf) in [1] amounted to 1350 ng·h/mL; in data set [5], 763 ng·h/mL. The same molecule showed a Vdss with Rattus norvegicus [13] of 20.8 L/kg. The EC50 in data set [12] came out at 67 nM. For the same molecule, the t1/2 in the data set with Rattus norvegicus [14] is 2.7 h. This molecule returned a bioavailability in data set [6] of 11%. Moreover, the Tmax in data set [7] was 5.3 h. Besides, the peak level in data set [8] (Cmax) was 63 ng/mL. This molecule also showed a half-life in data set [9] of 8.9 h.

Regarding `CC(=O)N1CCc2cc(S(=O)(=O)NNc3ccc(Br)cc3)ccc21`, in data set [11], the IC50 amounted to 34.6 nM. Besides, the EC50 in data set [12] was determined as 231 nM.

On to `CC1(C)C(=O)Nc2ccc(S(=O)(=O)NNc3ccc(Br)cc3)cc21`, for which, in [11], half-maximal inhibition (IC50) required 69.9 nM. Besides, the AUC(0-inf) is 364 ng·h/mL in data set [1] and 304 ng·h/mL in [5]. For the same molecule, the Vd in [2] is 13 L/kg. Besides, the clearance in data set [3] is 93.3 mL/min/kg. Also, the EC50 in data set [12] was 36.4 nM. Also, the figures for the half-life in [4] and in data set [9] were 2.4 h and 4.7 h, respectively. The same molecule returned a bioavailability in [6] of 17%. For the same molecule, in data set [7], the Tmax was determined as 1.3 h. The Cmax in data set [8] turned out to be 72 ng/mL.

`O=c1ccc2cc(S(=O)(=O)NNc3ccc(Br)cc3)ccc2[nH]1` showed an IC50 in data set [11] of 85 nM. The EC50 in data set [12] turned out to be 211 nM.

The molecule `O=C1CCCN1c1ccc(S(=O)(=O)NNc2ccc(Br)cc2)cc1` yielded an IC50 in [11] of 68.1 nM. Also, the AUC(0-inf) in data set [1] amounted to 5580 ng·h/mL; in data set [5], 9730 ng·h/mL. Further, the Vd in [2] came to 1 L/kg. Further, the clearance in [3] was 6.3 mL/min/kg. For the same molecule, the concentration for a half-maximal effect (EC50) in data set [12] is 89.6 nM. Also, the half-life in data set [4] is 1.5 h; in data set [9], 1.7 h. Besides, in data set [6], the bioavailability turned out to be 35%. In addition, the Tmax in [7] worked out at 4 h. Further, in [8], the Cmax came to 2050 ng/mL.
